Activity calls are given as the source filed them. The rule behind the calls is not given here.
Columns and labels:
BaF3 [1] = experiment: PROTAC activity at CRBN/KIF5B-RET G810C mutant (unknown origin) expressed in mouse BaF3 cells assessed as decrease in Shc activation incubated for 24 hrs by immunoblot analysis; assay type: cell-based; settings: dose 1-50 nM
BaF3 [2] = experiment: Antiproliferative activity against mouse BaF3 cells stably expressing CCDC6-RET G810R mutant incubated for 72 hrs by CCK8 assay; assay type: functional, cell-based; settings: BaF3, 72 h
[3] = Induction of apoptosis in mouse BaF3 cells stably expressing KIF5B-RET G810C mutant assessed as early apoptotic cells at 40 nM incubated for 48 hrs by Annexin V-FITC/PI staining based flow cytometry (reference value: 0.86 %); assay type: functional
MCF7 = experiment: Cytotoxicity against human MCF7 cells; assay type: functional, cell-based
[4] = Induction of apoptosis in mouse BaF3 cells stably expressing KIF5B-RET G810C mutant assessed as late apoptotic cells at 10 nM incubated for 48 hrs by Annexin V-FITC/PI staining based flow cytometry (reference value: 5.99 %); assay type: functional
[5] = Half life in Sprague-Dawley rat at 1 mg/kg, iv measured for 24 hrs by LC-MS/MS analysis; assay type: ADME, organism-based; settings: in vivo
[6] = Induction of apoptosis in mouse BaF3 cells stably expressing KIF5B-RET G810C mutant assessed as apoptotic cells at 20 nM incubated for 48 hrs by Annexin V-FITC/PI staining based flow cytometry (reference value: 6.7 %); assay type: functional
BaF3 [7] = experiment: PROTAC activity at CRBN/KIF5B-RET (unknown origin) expressed in mouse BaF3 cells assessed as induction of RET degradation at 10 nM incubated for 24 hrs in presence of MLN4924 by immunoblot analysis; assay type: cell-based
[8] = tested on: Kinesin-1 heavy chain/ Tyrosine-protein kinase receptor RET (Homo sapiens), P07949+P33176 [G810C]; experiment: In vivo PROTAC activity at CRBN/KIF5B-RET G810C mutant (unknown origin) expressed in mouse BaF3 cells implanted in BALB/c nu/nu mouse assessed as induction of RET G810C mutant degradation at 10 mg/kg, po bid treated for 10 days by Western blot analysis; assay type: functional, organism-based; settings: time 10.0 day
BaF3 [9] = experiment: Antiproliferative activity against mouse BaF3 cells stably expressing CCDC6-RET V804M mutant incubated for 72 hrs by CCK8 assay; assay type: functional, cell-based; settings: BaF3, 72 h
[10] = Induction of apoptosis in mouse BaF3 cells stably expressing KIF5B-RET G810C mutant assessed as necrotic cells at 40 nM incubated for 48 hrs by Annexin V-FITC/PI staining based flow cytometry (reference value: 0.94 %); assay type: functional
BaF3 [11] = experiment: PROTAC activity at CRBN/KIF5B-RET (unknown origin) expressed in mouse BaF3 cells assessed as induction of RET degradation at 10 nM incubated for 24 hrs by immunoblot analysis; assay type: cell-based
[12] = Tmax in Sprague-Dawley rat at 10 mg/kg, po measured for 24 hrs by LC-MS/MS analysis; assay type: ADME, organism-based; settings: in vivo
[13] = target: Proto-oncogene tyrosine-protein kinase receptor Ret (Homo sapiens, UniProt P07949); experiment: Inhibition of RET (unknown origin) preincubated for 10 mins followed by substrate/ATP addition measured after 30 mins by HTRF assay
Proto-oncogene tyrosine-protein kinase receptor Ret, sequence (P07949 whole entry): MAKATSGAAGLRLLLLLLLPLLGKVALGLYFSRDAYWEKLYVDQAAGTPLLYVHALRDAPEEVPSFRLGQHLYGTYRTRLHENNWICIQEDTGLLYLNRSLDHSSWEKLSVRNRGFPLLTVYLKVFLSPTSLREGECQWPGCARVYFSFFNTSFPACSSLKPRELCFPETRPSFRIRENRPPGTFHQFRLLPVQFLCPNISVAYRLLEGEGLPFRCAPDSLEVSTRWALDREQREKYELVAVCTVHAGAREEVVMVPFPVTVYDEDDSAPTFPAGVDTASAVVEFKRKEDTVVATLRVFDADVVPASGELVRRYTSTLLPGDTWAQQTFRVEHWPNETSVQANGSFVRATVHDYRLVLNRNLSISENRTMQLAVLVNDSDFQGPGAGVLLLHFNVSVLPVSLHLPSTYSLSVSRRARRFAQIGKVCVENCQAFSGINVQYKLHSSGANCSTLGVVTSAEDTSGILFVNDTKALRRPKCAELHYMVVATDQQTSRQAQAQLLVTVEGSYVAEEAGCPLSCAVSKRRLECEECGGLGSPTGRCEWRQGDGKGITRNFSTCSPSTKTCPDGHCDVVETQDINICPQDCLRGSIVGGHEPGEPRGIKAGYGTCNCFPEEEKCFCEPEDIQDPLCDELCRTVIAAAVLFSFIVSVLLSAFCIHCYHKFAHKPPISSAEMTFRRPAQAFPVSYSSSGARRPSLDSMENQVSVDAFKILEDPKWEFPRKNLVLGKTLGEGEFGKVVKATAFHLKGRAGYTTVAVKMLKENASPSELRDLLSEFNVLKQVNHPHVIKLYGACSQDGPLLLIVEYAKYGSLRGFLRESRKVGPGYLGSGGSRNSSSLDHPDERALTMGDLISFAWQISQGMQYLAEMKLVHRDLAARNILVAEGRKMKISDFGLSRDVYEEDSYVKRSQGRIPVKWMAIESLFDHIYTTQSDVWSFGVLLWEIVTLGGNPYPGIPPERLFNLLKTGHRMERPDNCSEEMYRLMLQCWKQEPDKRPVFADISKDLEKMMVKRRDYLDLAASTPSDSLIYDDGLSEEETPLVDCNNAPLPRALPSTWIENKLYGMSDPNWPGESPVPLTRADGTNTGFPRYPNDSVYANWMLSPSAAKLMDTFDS

BaF3 [14] = experiment: PROTAC activity at CRBN/KIF5B-RET (unknown origin) expressed in mouse BaF3 cells assessed as induction of RET degradation at 1 to 100 nM incubated for 24 hrs by immunoblot analysis relative to control; assay type: cell-based; settings: dose 1-100 nM
[15] = Cmax in Sprague-Dawley rat at 1 mg/kg, iv measured for 24 hrs by LC-MS/MS analysis; assay type: ADME, organism-based; settings: in vivo
[16] = Cytotoxicity against human HEK293 cells; assay type: toxicity, cell-based
[17] = AUC (0 to infinity) in Sprague-Dawley rat at 1 mg/kg, iv measured for 24 hrs by LC-MS/MS analysis; assay type: ADME, organism-based; settings: in vivo
BaF3 [18] = experiment: PROTAC activity at CRBN/KIF5B-RET (unknown origin) expressed in mouse BaF3 cells assessed as induction of RET degradation at 20 nM incubated for 8 to 24 hrs by immunoblot analysis; assay type: cell-based; settings: time 8-24 hrs
[19] = Cmax in Sprague-Dawley rat at 10 mg/kg, po measured for 24 hrs by LC-MS/MS analysis; assay type: ADME, organism-based; settings: in vivo
[20] = Induction of apoptosis in mouse BaF3 cells stably expressing KIF5B-RET G810C mutant assessed as early apoptotic cells at 10 nM incubated for 48 hrs by Annexin V-FITC/PI staining based flow cytometry (reference value: 0.86 %); assay type: functional
[21] = Induction of apoptosis in mouse BaF3 cells stably expressing KIF5B-RET G810C mutant assessed as viable cells at 20 nM incubated for 48 hrs by Annexin V-FITC/PI staining based flow cytometry (reference value: 92.21 %); assay type: functional; settings: read-out: Activity
[22] = Clearance in Sprague-Dawley rat at 1 mg/kg, iv measured for 24 hrs by LC-MS/MS analysis; assay type: ADME, organism-based; settings: in vivo
[23] = Oral bioavailability in Sprague-Dawley rat at 10 mg/kg measured for 24 hrs by LC-MS/MS analysis; assay type: ADME, organism-based; settings: in vivo
BaF3 [24] = experiment: Antiproliferative activity against mouse BaF3 cells stably expressing CCDC6-RET incubated for 72 hrs by CCK8 assay; assay type: functional, cell-based; settings: BaF3, 72 h

Which results are given for `COc1ccc(CN2C3CC2CN(c2ccc(-c4cc(N5CCC(N6CCN(CCCC#Cc7cccc8c7CN(C7CCC(=O)NC7=O)C8=O)CC6)CC5)cn5ncc(C#N)c45)cn2)C3)cn1` (stereo not given)?
Activity (BaF3 [1]): Dose-dependent-effect; IC50 (BaF3 [2]): 122 nM; Activity [3]: 56.22%; IC50 (MCF7): > 5 µM; Activity [4]: 15.87%; half-life [5]: 419 min; Activity [6]: 55.4%; Activity (BaF3 [7]): inactive; Activity [8]: Active; IC50 (BaF3 [9]): 4.5 nM; Activity [10]: 0.54%; Activity (BaF3 [11]): Active; Tmax [12]: 2 h; IC50 [13]: 0.371 nM; Emax (BaF3 [14]): 92%; Cmax [15]: 121 ng/mL; IC50 [16]: > 5 µM; AUC(0-inf) [17]: 295 ng·h/mL; Activity (BaF3 [18]): Active; Cmax [19]: 161 ng/mL; Activity [20]: 18.33%; viability at 0.02 µM [21]: 43.4%; clearance [22]: 52.8 mL/min/kg; bioavailability [23]: 40.3%; IC50 (BaF3 [24]): 2.4 nM

From ChEMBL document CHEMBL6096698, “Discovery of a Selective and Orally Bioavailable RET Degrader with Effectiveness in Various Mutations” (J Med Chem, 2025)
